Assay results from PubChem BioAssay (NCI).
“And” between values parts separate entries of the source, which are not always exact repeats. Equal values may be shown once.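 Method: 48-hour compound exposure of cells in 96-well plates, five concentrations, linear interpolation of endpoints. GI50 marks 50% less growth. TGI is the concentration that stops growth completely.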

Tests used:
Experiment in all cases: growth of human tumour cells (NCI), 48 h
RXF 393 renal = tested on: RXF 393 renal
K-562 leukemia = tested on: K-562 leukemia
MDA-MB-435 = tested on: MDA-MB-435
HCT-116 colon = tested on: HCT-116 colon
NCI-H226 lung = tested on: NCI-H226 lung
HOP-92 NSCLC = tested on: HOP-92 NSCLC
SK-MEL-28 melanoma = tested on: SK-MEL-28 melanoma
SK-OV-3 ovarian = tested on: SK-OV-3 ovarian
EKVX NSCLC = tested on: EKVX NSCLC
COLO 205 colon = tested on: COLO 205 colon

| SMILES | GI50 (RXF 393 renal) [µM] | TGI (RXF 393 renal) | GI50 (K-562 leukemia) [µM] | TGI (K-562 leukemia) [µM] | GI50 (MDA-MB-435) [µM] | TGI (MDA-MB-435) [µM] | GI50 (HCT-116 colon) [µM] | TGI (HCT-116 colon) [µM] | GI50 (NCI-H226 lung) [µM] | TGI (NCI-H226 lung) | GI50 (HOP-92 NSCLC) [µM] | TGI (HOP-92 NSCLC) [µM] | GI50 (SK-MEL-28 melanoma) [µM] | TGI (SK-MEL-28 melanoma) [µM] | GI50 (SK-OV-3 ovarian) [µM] | TGI (SK-OV-3 ovarian) [µM] | GI50 (EKVX NSCLC) [µM] | TGI (EKVX NSCLC) | GI50 (COLO 205 colon) [µM] | TGI (COLO 205 colon) [µM] |
| --- | --- | --- | --- | --- | --- | --- | --- | --- | --- | --- | --- | --- | --- | --- | --- | --- | --- | --- | --- | --- |
| CCCCCCCCCCCC[n+]1ccccc1 | 0.738 | 3.87 µM | 0.415 | 11.4 | 1.18 | 3.22 | 1.92 | 10.7 | 1.44 | 8.83 µM | 0.958 | 3.1 | 1.68 | 5.12 | 1.73 | 6.35 | 0.936 | 9.17 µM | 0.868 | 2.66 |
| O=C1c2ccccc2-c2n[nH]c3cccc1c23 | 5.89 | > 100 µM and 56.9 µM | 15.6 | > 100 | 15.8 | > 100 | 6.15 | > 100 | 10.3 | > 100 µM and 78.4 µM | 23.7 | > 100 | 49.3 | > 100 | 7.39 | > 100 | 7.03 | > 100 µM and 85.1 µM | 23.9 | > 100 |
| Cc1ccc(N=Nc2c(N)nn(-c3ccccc3)c2N)cc1 | 2.9 | > 100 µM | 0.256 |  | 0.177 | 0.568 | 0.542 | > 100 | 59.4 | > 100 µM | 3.44 | 9.05 | 8.97 | > 100 | 2.63 | > 100 | 3.72 | > 100 µM | 1.21 | > 26.9 |
| S=C=NCc1ccccc1 |  | 3.18 µM |  | > 19.9 |  | 8.33 |  | 2.36 |  | 15 µM |  | 17 |  | 10.2 |  | 25.1 |  | 28.4 µM |  | 4.78 |
| COc1cc2ccnc3c2c(c1OC)-c1ccc(=O)ccc1-3 | 18.7 | 77 µM | 14.5 | 35.5 | 31.5 | 90.6 | 5.25 | 34.5 | 17.7 | 45.8 µM | 14.4 | 80.4 | 23.7 | 66.9 | 41.5 | > 100 | 29.8 | 99 µM | 35.2 | 97.8 |
| C=CC(=O)N1CCC([C@@H]2CCNc3c(C(N)=O)c(-c4ccc(Oc5ccccc5)cc4)nn32)CC1 | 9.05 | 25.5 µM | 25.3 | > 100 | 17.8 | 44.6 | 17.1 | 39.3 | 11.9 | 42.5 µM | 13.6 | 43.7 | 15.6 | 30.6 | 0.338 | 14.2 | 2.35 | > 100 µM | 22.1 | > 74.3 |
| O=C(Nc1ccccc1)NS(=O)(=O)c1ccc(N2N=C3c4ccccc4CC3C2c2ccccn2)cc1 (stereo not drawn) | 45.3 | > 100 µM | 26.7 | 65.6 | 21.4 | 54 | 15.3 | 29.1 | 23.7 | 75.3 µM | 74.9 | > 100 | 71.5 | > 100 | > 100 | > 100 | 27.8 | > 100 µM | 31.1 | > 100 |
| CC1(C)CC(OCCCC[P+](c2ccccc2)(c2ccccc2)c2ccccc2)CC(C)(C)N1O | 0.518 | 2.08 µM | 0.186 | 18.1 | 0.301 | 1.15 | 0.238 | 3.61 | 0.472 | 10.6 µM | 0.199 | 0.903 | 0.628 | 2.02 | 0.302 | 0.787 | 0.256 | 4.37 µM | 0.202 | 0.402 |
| COc1ccc2c(c1)sc1nc(-c3ccccc3)c(-c3ccc(O)c(OC)c3)n12 | 4.9 | 29.8 µM | 4.53 | > 100 | 1.42 | 5.59 | 4.95 | > 100 | 22 | > 100 µM | 28 | > 100 | 8.99 | > 100 | 19.6 | > 100 | 74.7 | > 100 µM | 5.3 | 34.6 |
| NC(CSc1nc2ccccn2c1[N+](=O)[O-])C(=O)O (stereo not drawn) |  | > 100 µM |  | > 100 |  | > 100 |  | > 100 |  | > 100 µM |  | > 100 |  | > 100 |  | > 100 |  | > 100 µM |  | > 100 |
| COC(=O)c1ccc2c(c1)C(=O)c1c-2n(CCCN)c(=O)c2cc([N+](=O)[O-])ccc12 | < 0.0345 | 0.118 µM | 0.0206 | 2.02 | 0.105 | 1.44 | 0.0337 | 0.959 | 0.102 | 1.67 µM | 0.301 | 1.9 |  | 0.81 | 0.0332 | 1.65 | 0.0811 | 0.857 µM | 0.0737 | 1.69 |
| COc1cc(Cn2ccc3c2-c2oncc2CC3)cc(OC)c1 | 5.2 | 60 µM | 0.594 | > 100 | 0.369 | 4.03 | 3.49 | 26.6 | 15.5 | > 100 µM | 4.25 | 47 | 8.75 | > 100 | 4.79 | > 100 | 4.3 | 56.1 µM | 3.7 | 17.3 |
